According to the supplement of paper PMC10307832:

Experiments:
Test in all cases: relative viability (nuclei count vs DMSO), 5 days (fraction); higher = more cells survive
4EGI-1 + Decitabine = compound: O=C(O)C(Cc1ccccc1[N+](=O)[O-])=NNc1nc(-c2ccc(Cl)c(Cl)c2)cs1 (mixture of isomers) [4EGI-1] + Nc1ncn([C@H]2C[C@H](O)[C@@H](CO)O2)c(=O)n1 [Decitabine] (partner 2 µM)
How it was run: (§1)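 For relative viability, nuclei counts in treated wells were divided by those in vehicle wells. Lung cancer cell lines had been pin-tool dosed in 1536-well plates the day after seeding and cultured for 5 days, then fixed and stained in one step (final 0.05% Triton X-100, 1% formaldehyde, 1 ug/ml Hoechst) and imaged at 4×. Doses were one drug alone or a fixed anchor-drug dose plus five library-drug doses (not always all listed) in √10 steps, and values are duplicate-plate medians.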

XMD8-85 + Pemetrexed = compound: CN1CCN(CC1)C2=CC(=C(C=C2)NC3=NC=C4C(=N3)N(C5=CC=CC=C5C(=O)N4C)C)OC [XMD8-85] + Nc1nc2[nH]cc(CCc3ccc(C(=O)N[C@@H](CCC(=O)O)C(=O)O)cc3)c2c(=O)[nH]1 [Pemetrexed] (partner 0.2 µM)
How it was run: as §1

4EGI-1 + Alpelisib = compound: O=C(O)C(Cc1ccccc1[N+](=O)[O-])=NNc1nc(-c2ccc(Cl)c(Cl)c2)cs1 (mixture of isomers) [4EGI-1] + Cc1nc(NC(=O)N2CCC[C@H]2C(N)=O)sc1-c1ccnc(C(C)(C)C(F)(F)F)c1 [Alpelisib] (partner 2 µM)
How it was run: as §1

XMD8-85 + Palbociclib = compound: CN1CCN(CC1)C2=CC(=C(C=C2)NC3=NC=C4C(=N3)N(C5=CC=CC=C5C(=O)N4C)C)OC [XMD8-85] + CC(=O)c1c(C)c2cnc(Nc3ccc(N4CCNCC4)cn3)nc2n(C2CCCC2)c1=O [Palbociclib] (partner 0.5 µM)
How it was run: as §1

Cell Line	relative viability (4EGI-1 + Decitabine; first compound 0.5 µM)	relative viability (4EGI-1 + Decitabine; first compound 1.581 µM)	relative viability (4EGI-1 + Decitabine; first compound 5 µM)	relative viability (4EGI-1 + Decitabine; first compound 15.81 µM)	relative viability (4EGI-1 + Decitabine; first compound 50 µM)	relative viability (XMD8-85 + Pemetrexed; first compound 0.08 µM)	relative viability (XMD8-85 + Pemetrexed; first compound 0.253 µM)	relative viability (XMD8-85 + Pemetrexed; first compound 0.8 µM)	relative viability (XMD8-85 + Pemetrexed; first compound 2.53 µM)	relative viability (XMD8-85 + Pemetrexed; first compound 8 µM)	relative viability (4EGI-1 + Alpelisib; first compound 0.5 µM)	relative viability (4EGI-1 + Alpelisib; first compound 1.581 µM)	relative viability (4EGI-1 + Alpelisib; first compound 5 µM)	relative viability (4EGI-1 + Alpelisib; first compound 15.81 µM)	relative viability (4EGI-1 + Alpelisib; first compound 50 µM)	relative viability (XMD8-85 + Palbociclib; first compound 0.08 µM)	relative viability (XMD8-85 + Palbociclib; first compound 0.253 µM)	relative viability (XMD8-85 + Palbociclib; first compound 0.8 µM)	relative viability (XMD8-85 + Palbociclib; first compound 2.53 µM)	relative viability (XMD8-85 + Palbociclib; first compound 8 µM)
LXF-289	0.436	0.346	0.391	0.359	0.287	0.856	0.88	0.878	0.949	0.899	1.17	1.01	1.04	0.89	0.516	0.581	0.615	0.561	0.658	0.54
NCI-H23	0.331	–	0.337	0.45	0.2	0.546	0.677	0.607	–	0.4	0.905	–	0.915	0.794	0.611	0.488	–	0.525	0.441	0.413
NCI-H322M	0.692	–	0.764	0.636	0.727	0.579	0.596	0.606	0.59	0.48	0.778	0.895	0.771	0.722	0.809	0.466	0.447	0.457	0.444	0.431
NCI-H358	0.218	0.203	0.189	0.138	0.115	0.165	0.176	0.175	0.164	0.183	0.966	0.817	0.96	0.653	0.175	0.244	0.126	0.138	0.155	0.132
NCI-H441	0.262	0.258	0.251	0.244	0.18	0.263	0.261	0.247	0.279	0.256	0.787	0.758	0.656	0.743	0.301	0.206	0.209	0.197	0.195	0.2
NCI-H460	0.562	0.246	0.476	0.188	0.0663	0.0608	0.0555	0.0635	0.0564	0.0781	0.511	–	0.493	0.197	0.0546	0.129	0.221	0.139	0.223	0.0809
NCI-H520	0.568	0.499	0.499	0.562	0.25	0.709	0.697	0.75	0.595	0.361	0.918	0.754	1.02	0.866	0.543	0.181	0.211	0.199	0.221	0.196
NCI-H647	0.433	0.309	0.391	0.218	0.155	0.172	0.16	0.18	0.151	0.116	1.16	1.17	1.41	0.647	0.108	0.342	0.325	0.406	0.523	0.282
NCI-H650	0.352	–	0.34	0.332	0.322	0.944	0.921	1.04	0.852	0.717	1.15	–	1.25	1.15	0.92	0.275	0.32	0.302	0.288	0.255
NCI-H661	0.582	0.568	0.519	0.385	0.341	0.944	0.946	0.93	1.01	0.782	0.82	0.446	1.26	0.535	0.229	0.401	–	0.4	0.443	0.346
NCI-H838	0.469	0.509	0.389	0.312	0.238	0.243	0.247	0.249	0.208	0.184	1.02	–	1.06	0.907	0.524	0.224	0.197	0.227	0.251	0.184
NCI-H1355	0.364	0.36	0.358	0.328	0.336	1.04	1.02	1.03	1.07	0.976	0.876	0.79	0.772	0.477	0.504	0.395	0.365	–	0.619	0.306
NCI-H1395	0.746	–	0.817	0.695	0.515	0.768	0.744	0.854	0.976	0.594	1.19	–	1.52	1.07	0.685	0.503	0.61	0.621	0.54	0.495
NCI-H1437	0.58	0.593	0.544	0.435	0.221	0.29	0.33	0.363	0.317	0.272	1.13	0.865	0.84	0.845	0.153	0.295	0.311	0.289	0.309	0.203
NCI-H1651	0.626	0.553	0.734	0.576	0.286	0.506	0.617	0.602	0.748	0.445	0.927	0.914	0.913	0.906	0.556	0.517	0.534	0.475	0.468	0.405
NCI-H1666	0.749	0.609	0.758	0.564	0.495	0.862	0.811	0.83	0.82	0.673	1.08	1.07	1.15	0.403	0.212	0.679	0.656	0.606	0.632	0.645

Cell Line	relative viability (4EGI-1 + Decitabine; first compound 0.5 µM)	relative viability (4EGI-1 + Decitabine; first compound 1.581 µM)	relative viability (4EGI-1 + Decitabine; first compound 5 µM)	relative viability (4EGI-1 + Decitabine; first compound 15.81 µM)	relative viability (4EGI-1 + Decitabine; first compound 50 µM)	relative viability (XMD8-85 + Pemetrexed; first compound 0.08 µM)	relative viability (XMD8-85 + Pemetrexed; first compound 0.253 µM)	relative viability (XMD8-85 + Pemetrexed; first compound 0.8 µM)	relative viability (XMD8-85 + Pemetrexed; first compound 2.53 µM)	relative viability (XMD8-85 + Pemetrexed; first compound 8 µM)	relative viability (4EGI-1 + Alpelisib; first compound 0.5 µM)	relative viability (4EGI-1 + Alpelisib; first compound 1.581 µM)	relative viability (4EGI-1 + Alpelisib; first compound 5 µM)	relative viability (4EGI-1 + Alpelisib; first compound 15.81 µM)	relative viability (4EGI-1 + Alpelisib; first compound 50 µM)	relative viability (XMD8-85 + Palbociclib; first compound 0.08 µM)	relative viability (XMD8-85 + Palbociclib; first compound 0.253 µM)	relative viability (XMD8-85 + Palbociclib; first compound 0.8 µM)	relative viability (XMD8-85 + Palbociclib; first compound 2.53 µM)	relative viability (XMD8-85 + Palbociclib; first compound 8 µM)
NCI-H1734	0.569	0.535	0.519	0.463	0.29	–	0.405	0.419	0.354	0.366	0.686	0.599	0.753	0.719	0.491	0.315	0.329	–	0.384	0.281
NCI-H1755	0.718	0.676	0.654	0.697	0.618	0.405	0.441	0.444	0.427	0.444	0.956	1.03	0.88	0.851	0.445	0.47	0.445	0.432	0.449	0.393
NCI-H1793	0.557	0.333	0.442	0.427	0.238	–	0.824	0.839	1.18	0.645	0.868	0.883	0.679	0.668	0.577	–	0.251	0.319	0.38	0.208
NCI-H1915	0.27	0.226	0.259	0.247	0.215	0.434	0.523	0.484	0.5	0.457	1.09	0.808	0.982	1.07	0.695	0.721	0.529	0.537	0.549	0.371
NCI-H1944	0.502	–	0.427	0.404	0.344	0.517	0.72	0.638	0.615	0.639	0.86	–	0.796	0.642	0.672	0.319	0.319	0.362	0.33	0.313
NCI-H1975	0.367	0.433	0.375	0.355	0.221	0.257	0.286	0.305	0.282	0.227	0.673	0.81	0.702	0.627	0.469	0.587	0.511	0.524	0.651	0.296
NCI-H1993	0.74	0.548	0.588	0.619	0.462	0.604	0.572	0.681	0.739	0.563	0.714	0.666	0.72	0.675	0.659	0.564	0.595	0.612	0.692	0.61
NCI-H2009	0.419	0.359	0.389	0.292	0.317	0.958	1.03	1.1	0.885	0.767	1.16	1.14	1.25	1.07	0.585	0.198	0.208	0.184	0.163	0.154
NCI-H2023	0.242	0.173	0.221	0.128	0.0871	0.189	0.223	0.326	0.255	0.165	0.578	–	0.582	0.41	0.264	0.368	0.441	0.334	0.411	0.246
NCI-H2085	0.536	0.578	0.513	0.488	0.317	0.889	0.826	0.849	0.811	0.713	1.19	1	1.03	0.831	0.626	0.446	0.452	0.419	0.475	0.397
NCI-H2087	0.376	0.338	0.258	0.218	0.158	0.654	0.697	0.692	0.731	0.659	1.17	1.09	0.985	0.839	0.221	0.205	0.168	0.222	0.217	0.172
NCI-H2126	0.611	0.65	0.617	0.472	0.488	0.705	0.758	0.693	0.707	0.623	0.779	0.716	0.749	0.67	0.739	0.415	0.394	0.378	0.32	0.387
NCI-H2170	0.502	0.449	0.459	0.441	0.282	0.258	0.28	0.264	0.269	0.286	0.865	0.803	0.849	0.768	0.344	0.38	0.374	0.436	0.383	0.332
NCI-H2347	0.68	0.649	0.569	0.586	0.543	0.393	0.529	0.427	0.406	0.431	1.2	0.953	1.04	0.965	0.978	0.523	0.457	0.395	0.456	0.352
NCI-H2405	0.791	–	0.755	0.734	0.478	1.12	1.05	1.04	1.01	0.602	1.16	0.664	0.95	0.918	0.526	0.527	–	0.543	0.528	0.509
NCI-H3122	0.452	0.487	0.454	0.521	0.351	0.178	0.201	0.203	0.213	0.172	0.866	0.718	0.792	0.775	0.646	0.188	0.192	0.218	0.186	0.215
